# Experimental data from patent publication US20230287003A1, “BCL6 INHIBITORS” (Cancer Research Technology Limited, priority 2018, published 2023).
# Experiments:
# [1] = target: human BCL6 BTB domain (Trx-6×His-BCL6) / BCOR-AF633 peptide (Homo sapiens (Human), UniProt P41182); test: HTRF assay; format: binding; details: 1 nM Trx-6×His-BCL6, 300 nM BCOR-AF633 peptide, 2 hours incubation
# [2] = target: BCL6-NCOR2(SMRT) corepressor protein-protein interaction (Homo sapiens (Human), UniProt P41182); test: NanoBRET cell assay; format: cell-based; details: for IC50: read-out: NanoBRET cell avg pIC50 (converted)
# Excerpt: At 20 hr post-transfection, cells were collected, washed with PBS, and exchanged into media containing phenol red-free OptiMEM+4% FBS (Life Technology).
HTRF avg pIC50 (1 nM) [1],IC50 [2] [nM],"NanoBRET cell avg pIC50 ([2]; HEK293T cells co-transfected with BCL6-nanoLuc and NCOR2-HaloTag, 6 hr incubation)",SMILES
6.88,4790,–,"C[C@H]1CCOc2c(c3cc(Nc4cc(C(=O)N5CCC5)nc(Cl)c4C#N)ccc3n(C)c2=O)N1 [Example 3a, (S)-6-(azetidine-1-carbonyl)-2-chloro-4-((2,7-dimethyl-6-oxo-1,2,3,4,6,7-hexahydro-[1,4]oxazepino[2,3-c]quinolin-10-yl)amino)nicotinonitrile]"
7.32,646,–,"Cn1c(=O)c2c(c3cc(Nc4cc(C(=O)N5CC(C(F)(F)F)C5)nc(Cl)c4C#N)ccc31)N[C@@H](C1CC1)CCO2 [Example 3b, (R)-2-chloro-4-((2-cyclopropyl-7-methyl-6-oxo-1,2,3,4,6,7-hexahydro-[1,4]oxazepino[2,3-c]quinolin-10-yl)amino)-6-(3-(trifluoromethyl)azetidine-1-carbonyl)nicotinonitrile]"
6.21,4900,–,"C[C@H]1CCOc2c(c3cc(Nc4ccnc(Cl)c4Cl)ccc3n(C)c2=O)N1 [Example 4a, (S)-10-((2,3-dichloropyridin-4-yl)amino)-2,7-dimethyl-1,2,3,4-tetrahydro-[1,4]oxazepino[2,3-c]quinolin-6(7H)-one]"
6.70,3310,–,"COC[C@@H]1CCCN1C(=O)c1cc(Nc2ccc3c(c2)c2c(c(=O)n3C)OCC[C@H](C)N2)c(Cl)cn1 [Example 4b, (S)-10-((5-chloro-2-((S)-2-(methoxymethyl)pyrrolidine-1-carbonyl)pyridin-4-yl)amino)-2,7-dimethyl-1,2,3,4-tetrahydro-[1,4]oxazepino[2,3-c]quinolin-6(7H)-one]"
6.85,708,–,Cn1c(=O)c2c(c3cc(Nc4ccnc(Cl)c4Cl)ccc31)N[C@@H](C1CC1)CCO2 [Example 4c]
7.03,617,–,"Cn1c(=O)c2c(c3cc(Nc4nc(-n5ccc(C(F)(F)F)n5)ncc4Cl)ccc31)N[C@@H](C1CC1)CCO2 [Example 5a, (R)-10-((5-chloro-2-(3-(trifluoromethyl)-1H-pyrazol-1-yl)pyrimidin-4-yl)amino)-2-cyclopropyl-7-methyl-1,2,3,4-tetrahydro-[1,4]oxazepino[2,3-c]quinolin-6(7H)-one]"
6.43,4680,–,"C[C@H]1CCOc2c(c3cc(Nc4nc(-n5ccc(C(F)(F)F)n5)ncc4Cl)ccc3n(C)c2=O)N1 [Example 5c, (S)-10-((5-chloro-2-(3-(trifluoromethyl)-1H-pyrazol-1-yl)pyrimidin-4-yl)amino)-2,7-dimethyl-1,2,3,4-tetrahydro-[1,4]oxazepino[2,3-c]quinolin-6(7H)-one]"
6.83,1410,–,"C[C@H]1CCOc2c(c3cc(Nc4nc(N5CCC(C(=O)N(C)C)CC5)ncc4Cl)ccc3n(C)c2=O)N1 [Example 5d, (S)-1-(5-chloro-4-((2,7-dimethyl-6-oxo-1,2,3,4,6,7-hexahydro-[1,4]oxazepino[2,3-c]quinolin-10-yl)amino)pyrimidin-2-yl)-N,N-dimethylpiperidine-4-carboxamide]"
6.88,2040,–,"C[C@@H]1CN(c2ncc(Cl)c(Nc3ccc4c(c3)c3c(c(=O)n4C)OCC[C@H](C)N3)n2)C[C@H](C)O1 [Example 5g, (S)-10-((5-chloro-2-((2S,6R)-2,6-dimethylmorpholino)pyrimidin-4-yl)amino)-2,7-dimethyl-1,2,3,4-tetrahydro-[1,4]oxazepino[2,3-c]quinolin-6(7H)-one]"
7.01,1740,–,"C[C@H]1CCOc2c(c3cc(Nc4nc(N5CCOCC5)ncc4Cl)ccc3n(C)c2=O)N1 [Example 5h, (S)-10-((5-chloro-2-morpholinopyrimidin-4-yl)amino)-2,7-dimethyl-1,2,3,4-tetrahydro-[1,4]oxazepino[2,3-c]quinolin-6(7H)-one]"
7.22,112,–,"Cn1c(=O)c2c(c3cc(Nc4nc(N5CC(C)(C)OC(C)(C)C5)ncc4Cl)ccc31)N[C@@H](C1CC1)CCO2 [Example 5k, (R)-10-((5-chloro-2-(2,2,6,6-tetramethylmorpholino)pyrimidin-4-yl)amino)-2-cyclopropyl-7-methyl-1,2,3,4-tetrahydro-[1,4]oxazepino[2,3-c]quinolin-6(7H)-one]"

# Second part, the compound before the results:
SMILES,HTRF avg pIC50 (1 nM) [1],IC50 [2] [nM],"NanoBRET cell avg pIC50 ([2]; HEK293T cells co-transfected with BCL6-nanoLuc and NCOR2-HaloTag, 6 hr incubation)"
"Cn1c(=O)c2c(c3cc(Nc4ccnc(Cl)c4C#N)ccc31)NC(C)(C)CCO2 [Example 1f, 2-chloro-4-((2,2,7-trimethyl-6-oxo-1,2,3,4,6,7-hexahydro-[1,4]oxazepino[2,3-c]quinolin-10-yl)amino)nicotinonitrile]",6.24,5130,–
"COCC1(C)CCOc2c(c3cc(Nc4ccnc(Cl)c4C#N)ccc3n(C)c2=O)N1 (centres unmarked) [Example 1g, 2-chloro-4-((2-(methoxymethyl)-2,7-dimethyl-6-oxo-1,2,3,4,6,7-hexahydro-[1,4]oxazepino[2,3-c]quinolin-10-yl)amino)nicotinonitrile]",6.30,2510,–
"Cn1c(=O)c2c(c3cc(Nc4ccnc(Cl)c4C#N)ccc31)NC(C1CC1)C(F)(F)CO2 (centres unmarked) [Example 1q, 2-chloro-4-((2-cyclopropyl-3,3-difluoro-7-methyl-6-oxo-1,2,3,4,6,7-hexahydro-[1,4]oxazepino[2,3-c]quinolin-10-yl)amino)nicotinonitrile]",8.35,30.2,–
"C[C@@H]1CN(c2nc(Cl)c(Cl)c(Nc3ccc4c(c3)c3c(c(=O)n4C)OCC[C@H](C4CC4)N3)n2)C[C@H](C)O1 [Example 1r, (R)-2-cyclopropyl-10-((5,6-dichloro-2-((2S,6R)-2,6-dimethylmorpholino)pyrimidin-4-yl)amino)-7-methyl-1,2,3,4-tetrahydro-[1,4]oxazepino[2,3-c]quinolin-6(7H)-one]",6.51,1020,–
"Cn1c(=O)c2c(c3cc(Nc4ccnc(Cl)c4C#N)ccc31)N[C@@H](C1CC1)CCS2 [Example 1s, (R)-2-chloro-4-((2-cyclopropyl-7-methyl-6-oxo-1,2,3,4,6,7-hexahydro-[1,4]thiazepino[2,3-c]quinolin-10-yl)amino)nicotinonitrile]",7.83,63.1,–
"Cn1c(=O)c2c(c3cc(Nc4ccnc(Cl)c4C#N)ccc31)N[C@@H](C1CC1)CCS2(=O)=O [Example 1u, (R)-2-chloro-4-((2-cyclopropyl-7-methyl-5,5-dioxido-6-oxo-1,2,3,4,6,7-hexahydro-[1,4]thiazepino[2,3-c]quinolin-10-yl)amino)nicotinonitrile]",8.15,3090,–
"Cn1c(=O)c2c(c3cc(Nc4ccnc(Cl)c4C#N)ccc31)N[C@@H](C1CC1)C(F)(F)CO2 [Example 1v, (S)-2-chloro-4-((2-cyclopropyl-3,3-difluoro-7-methyl-6-oxo-1,2,3,4,6,7-hexahydro-[1,4]oxazepino[2,3-c]quinolin-10-yl)amino)nicotinonitrile]",8.58,–,7.83
"Cn1c(=O)c2c(c3cc(Nc4nc(N5C6CCC5COC6)ncc4Cl)ccc31)N[C@@H](C1CC1)CCO2 [Example 5l, (R)-10-((2-(3-oxa-8-azabicyclo[3.2.1]octan-8-yl)-5-chloropyrimidin-4-yl)amino)-2-cyclopropyl-7-methyl-1,2,3,4-tetrahydro-[1,4]oxazepino[2,3-c]quinolin-6(7H)-one]",7.49,120,–
